Data as given in publication PMC11862924, “Phenylpyrazoles as Inhibitors of the m^6A RNA-Binding Protein YTHDF2” (JACS Au, 2025).

Legend:
HCT116 = test: CCK-8 proliferation assay, HCT116; type: cell-based; settings: Homo sapiens, HCT-116; CCK-8 kit assay, triplicates, 72 h; read-out: Anti-proliferation activity against cancer cells (IC50), HCT116
Method: (§1) The JAR, K562, HCT116, and MOLM13 cells were seeded in 96-well plates (3000 cells/well). After being cultured overnight, compounds were added together with the DMSO treatment (0.1%) as a control. After 72 h, CCK-8 solution (Vazyme, A311) was added, and the cells were incubated at 37 °C for 4 h. The absorbance was measured at 450 nm using a plate reader (TECAN Spark).

JAR = test: CCK-8 proliferation assay, JAR; type: cell-based; settings: Homo sapiens; CCK-8 kit assay, triplicates, 72 h; read-out: Anti-proliferation activity against cancer cells (IC50), JAR
Method: as §1

K562 = test: CCK-8 proliferation assay, K562; type: cell-based; settings: Homo sapiens, CCK-8 kit assay, triplicates, 72 h, read-out: Anti-proliferation activity against cancer cells (IC50), K562
Method: as §1

[1] = MTT cytotoxicity assay, K562; type: cell-based; settings: human, K562 cells, triplicates, read-out: Cytotoxicity against cancer cells (IC50), K562
Method: (§2) JAR, K562, and HCT116 cells were seeded in 96-well plates (3500 cells/well) and incubated for 8 h. The medium with different concentrations of compounds (100, 33.3, 11.1, 3.7, 1.2, and 0.4 μM) was added to the 96-well plates. Data were normalized to the medium with 0.1% DMSO. After incubation for 72 h, MTT solution (5 mg/mL, 20 μL) was added per well in a dark environment and incubated for 4 h. After the medium was discarded, DMSO (150 μL) was added per well, and the absorbance was measured at 492 nm by a plate reader (TECAN Spark).

[2] = MTT cytotoxicity assay, HCT116; type: cell-based; settings: human, HCT116 cells, triplicates, read-out: Cytotoxicity against cancer cells (IC50), HCT116
Method: as §2

[3] = biological target: T1, YTHDF2 (residues 383–553) (Homo sapiens, UniProt Q9Y5A9); test: Fluorescence polarization (FP) assay, YTHDF2–m6A RNA interaction; type: binding; settings: 100 μM compound; YTHDF2 (residues 383–553, 20 nM), FAM-labeled m6A RNA probe 5 nM; average ± SD
T1 construct: A YTHDF2 YTH domain construct (residues 383–553) was subcloned to a pOPIN plasmid; made in house; host or cells: Escherichia coli BL21(DE3)
T1 sequence (Q9Y5A9 383-553): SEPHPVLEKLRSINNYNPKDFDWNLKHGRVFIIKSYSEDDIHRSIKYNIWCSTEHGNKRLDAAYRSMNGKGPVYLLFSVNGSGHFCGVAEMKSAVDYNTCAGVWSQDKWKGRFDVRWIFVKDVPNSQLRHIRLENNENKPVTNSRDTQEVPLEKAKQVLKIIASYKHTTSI
Method: The FP assay was performed in 384-well black plates (Corning no. 4514) with a total reaction volume of 15 μL. The final concentrations of protein (YTHDF2) and RNA were […], respectively, in a buffer containing 20 mM HEPES/KOH pH 7.5, 50 mM NaCl, 0.005% Tween 20, and 1 mM GSH (DTT). Compounds were incubated with protein, added FAM-m^6A RNA probe ([…](m6)ACUGUG) (purchased from IDT), and incubated at 4 °C for 30 min. The fluorescence polarization was measured using a plate reader (TECAN Spark) under an excitation wavelength of 485 nm and an emission wavelength of 535 nm with a bandwidth of 20 nm. […] The data were determined using GraphPad Prism 9.

[4] = MTT cytotoxicity assay, JAR; type: cell-based; settings: human, JAR cells, triplicates, read-out: Cytotoxicity against cancer cells (IC50), JAR
Method: as §2

IC50 (HCT116) | IC50 (K562) | inhibition at 100 µM [3] | inhibition at 100 μM in the FP assay [3] | SMILES | IC50 (JAR) | IC50 at 72 h [1] | IC50 at 72 h [2] | IC50 at 72 h [4]
> 50 µM | > 50 µM | 5.2 ± 6.7% |  | O=C(O)c1ccc(-n2cc(C(=O)c3ccccc3O)cn2)cc1 [CK-24] | > 50 µM | 43.2 ± 15.7 µM | > 50 µM | > 50 µM
> 50 µM | > 50 µM |  |  | O=C(O)c1cccc(-n2cc(C(=O)c3ccccc3O)cn2)c1 [CK-23, 3-(4-(2-hydroxybenzoyl)-1H-pyrazol-1-yl)benzoic acid] | > 50 µM | 21.5 ± 8.2 µM | 12.9 ± 2.5 µM | 45 ± 4.6 µM
> 50 µM | > 50 µM | 22.1 ± 3.3% |  | O=C(c1cnn(-c2ccccc2C(=O)O)c1)c1ccccc1O [CK-25] | > 50 µM | 44.3 ± 13.1 µM | > 50 µM | > 50 µM
> 50 µM | > 50 µM | 25.5 ± 6.7% |  | COc1ccc(-n2cc(C(=O)c3ccccc3O)cn2)cn1 [CK-47] | > 50 µM | > 50 µM | > 50 µM | > 50 µM
> 50 µM | > 50 µM | 26.3 ± 6.8% |  | Cc1ccc(C(=O)c2cnn(-c3ccc(C(=O)O)cc3)c2)c(O)c1 [CK-73] | > 50 µM | > 50 µM | > 50 µM | > 50 µM
> 50 µM | 28.3 ± 5.4 µM | -3.7 ± 7.8% |  | O=C(c1cnn(-c2ccccc2)c1)c1ccccc1O [CK-22] | 27.6 ± 2.8 µM | 32.1 ± 12.2 µM | 43.5 ± 12.3 µM | 48.1 ± 10.2 µM
38.9 ± 12.1 µM | 25.6 ± 2.3 µM | 6.9 ± 3.3% |  | O=C(c1cnn(-c2ccc(OC(F)(F)F)cc2)c1)c1ccccc1O [CK-39] | 31.2 ± 3.5 µM | 19.8 ± 14.3 µM | 26.4 ± 10.3 µM | 46.2 ± 20.8 µM
> 50 µM | > 50 µM | 54.6 ± 8.4% |  | O=C(O)c1ccc(-n2cc(C(=O)c3cc(F)cc(F)c3O)cn2)cc1 [CK-86] | > 50 µM | > 50 µM | > 50 µM | > 50 µM
> 50 µM | > 50 µM | 44.4 ± 1.8% |  | O=C(O)c1ccc(-n2cc(C(=O)c3ccc(F)cc3O)cn2)cc1 [CK-89] | > 50 µM | 43.8 ± 22.7 µM | 32.8 ± 7.5 µM | > 50 µM

Further lines, the compound ahead of its results:

SMILES | IC50 (HCT116) | IC50 (K562) | inhibition at 100 µM [3] | inhibition at 100 μM in the FP assay [3] | IC50 (JAR) | IC50 at 72 h [1] | IC50 at 72 h [2] | IC50 at 72 h [4]
O=C(O)c1ccc(-n2cc(C(=O)c3cccc(Cl)c3O)cn2)cc1 [CK-96] | > 50 µM | > 50 µM | 52.2 ± 10.1% |  | > 50 µM | 25.4 ± 7.8 µM | 20.6 ± 8.1 µM | 40.2 ± 12.7 µM
NS(=O)(=O)c1ccc(-n2cc(C(=O)c3ccccc3O)cn2)cc1 [CK-49] | > 50 µM | > 50 µM | 1.7 ± 6.5% |  | > 50 µM | 20.1 ± 12.3 µM | 29 ± 11.4 µM | 34.6 ± 5.9 µM
O=C(c1cnn(-c2ccccc2F)c1)c1ccccc1O [CK-43] | > 50 µM | > 50 µM | 24.4 ± 2.1% |  | > 50 µM | 46.2 ± 10.1 µM | > 50 µM | > 50 µM
COc1cccc(O)c1C(=O)c1cnn(-c2ccc(C(=O)O)cc2)c1 [CK-85] | > 50 µM | > 50 µM | 64.7 ± 8.4% |  | 46.2 ± 2.6 µM | > 50 µM | > 50 µM | > 50 µM
Cc1ccccc1-n1cc(C(=O)c2ccccc2O)cn1 [CK-45] | > 50 µM | 33.1 ± 5.7 µM | 22.1 ± 6.6% |  | 42.8 ± 1.2 µM | 21.9 ± 7.6 µM | 26 ± 16.8 µM | 43.2 ± 15.5 µM
O=C(c1cnn(-c2ccc(F)cc2)c1)c1ccccc1O [CK-26] | 43.2 ± 5.3 µM | 21.5 ± 1.9 µM | 10.7 ± 7.2% |  | 31.2 ± 6.4 µM | 23.4 ± 9.4 µM | 29.4 ± 10.4 µM | 47.2 ± 15.5 µM
O=C(O)c1ccc(-n2cc(C(=O)c3cc(Br)ccc3O)cn2)cc1 [CK-60] | > 50 µM | > 50 µM | 63.6 ± 10.8% |  | > 50 µM | 16.4 ± 8.2 µM | 12.5 ± 6.4 µM | 37.1 ± 11.4 µM
O=C(O)c1ccc(-n2cc(C(=O)c3ccc(Cl)cc3O)cn2)cc1 [CK-88] | > 50 µM | 48.2 ± 6.3 µM | 28.8 ± 0.1% |  | 39 ± 3.2 µM | 43.2 ± 10.4 µM | > 50 µM | 25 ± 3.6 µM
Cc1ccc(O)c(C(=O)c2cnn(-c3ccc(C(=O)O)cc3)c2)c1 [CK-54] | > 50 µM | > 50 µM | 20.9 ± 3.8% |  | > 50 µM | > 50 µM | > 50 µM | > 50 µM
COC(=O)c1ccc(-n2cc(/C=C(\C#N)C(N)=O)cn2)cc1 [CK-94] |  |  | < 30% | 26.6 ± 1.9% |  |  |  | 
O=C(c1cnn(-c2ccc(C(F)(F)F)cc2)c1)c1ccccc1O [CK-48] | > 50 µM | > 50 µM | 17.5 ± 4.2% |  | > 50 µM | 22.8 ± 2.5 µM | 43.1 ± 8.6 µM | 37 ± 12.7 µM
O=C(c1cnn(-c2ccc(Cl)cc2)c1)c1ccccc1O [CK-27] | 45.6 ± 2.5 µM | 44.8 ± 8.7 µM | -5.2 ± 2.8% |  | > 50 µM | > 50 µM | > 50 µM | > 50 µM
O=C(c1cnn(-c2ccccc2Cl)c1)c1ccccc1O [CK-44] | > 50 µM | 34.9 ± 3.5 µM | 0.8 ± 7% |  | 41.2 ± 8.5 µM | 32.3 ± 8.8 µM | 18.5 ± 14.1 µM | 44.7 ± 14.4 µM
Cc1ccc(-n2cc(C(=O)c3ccccc3O)cn2)cc1 [CK-51] | > 50 µM | 30.1 ± 6.3 µM | 4.1 ± 3.7% |  | > 50 µM | 20.2 ± 15.4 µM | 18.5 ± 9.4 µM | 32.9 ± 14.2 µM
COc1ccc(-n2cc(C(=O)c3ccccc3O)cn2)cc1 [CK-40] | > 50 µM | 39.2 ± 6.1 µM | -4.8 ± 3.2% |  | > 50 µM | 33.2 ± 5.8 µM | 25.5 ± 1.8 µM | 44.6 ± 12.3 µM
CS(=O)(=O)c1ccc(-n2cc(C(=O)c3ccccc3O)cn2)cc1 [CK-50] | > 50 µM | > 50 µM | 24.3 ± 4% |  | > 50 µM | 48.2 ± 11.1 µM | > 50 µM | > 50 µM
N#Cc1ccc(-n2cc(C(=O)c3ccccc3O)cn2)cc1 [CK-38] | > 50 µM | > 50 µM | 44.5 ± 7.1% |  | > 50 µM | 43.2 ± 11.2 µM | > 50 µM | > 50 µM
COc1ccccc1-n1cc(C(=O)c2ccccc2O)cn1 [CK-46] | > 50 µM | 42.9 ± 6.2 µM | 5.4 ± 4.2% |  | > 50 µM | 23.8 ± 4.7 µM | 49.4 ± 22.1 µM | > 50 µM
O=C(c1cnn(-c2ccc(Br)cc2)c1)c1ccccc1O [CK-28] | > 50 µM | > 50 µM | 42.2 ± 12.1% |  | > 50 µM | > 50 µM | > 50 µM | > 50 µM
CCc1ccc(O)c(C(=O)c2cnn(-c3ccc(C(=O)O)cc3)c2)c1 [CK-65] | > 50 µM | 43.9 ± 12 µM | 35.4 ± 6.5% |  | 45.6 ± 3.9 µM | > 50 µM | > 50 µM | > 50 µM
